Source: patent publication US6548476B1, “Dimeric inhibitors of influenza neuraminidase” (priority 1999, dated 2003)
Values after ≈ are worked out from the molar mass of the structure shown. Read-outs that look alike come from different tables or passages of the source.

Experiments:
influenza A virus = assay: Inhibition of influenza A virus replication (cytopathic effect) in MDCK cells; conditions: for ID50: MDCK cells, influenza A virus
MDCK cells [1] = assay: Minimum cytotoxic drug concentration in the MDCK cell replication assay
MDCK cells [2] = conditions: dog
[3] = Cytotoxicity (CC50) in the CPE type assay of Example 7; format: cell-based; conditions: CPE assay of Example 7; three separate experiments (test 1-3)
[4] = test system: influenza A/Victoria/3/75 B010; assay: Inhibition of influenza A/Victoria/3/75 B010 replication, standard CPE type assay; format: cell-based; conditions: for EC50: three separate experiments (test 1-3)

Compound	ID50 (μg of (A)) (influenza A virus)	ID50 (influenza A virus) [µg/mL]	MTC (MDCK cells [1]) [µg/mL]	MTC (MDCK cells [2]) [µg/mL]	CC50 [3] [µg/mL]	EC90 ([4]; test 1) [µg/mL]	EC50 [4] [µg/mL]	EC50 ([4]; Influenza A virus, read-out: EC50) [µg/mL]
CC(=O)N[C@H]1[C@H]([C@H](OC(=O)NCCCCCCNC(=O)NCCCCNC(=O)NCCCCCCNC(=O)O[C@@H]([C@@H]2OC(C(=O)O)=C[C@H](NC(=N)N)[C@H]2NC(C)=O)[C@H](O)CO)[C@H](O)CO)OC(C(=O)O)=C[C@@H]1NC(=N)N [(2)]	0.013 μg of (A)	0.007 (≈ 0.00643 µM)	>10					
CC(=O)N[C@H]1[C@H]([C@H](OC(=O)NCCCCCCNC(=O)NCCCCCCCCCCCCNC(=O)NCCCCCCNC(=O)O[C@@H]([C@@H]2OC(C(=O)O)=C[C@H](NC(=N)N)[C@H]2NC(C)=O)[C@H](O)CO)[C@H](O)CO)OC(C(=O)O)=C[C@@H]1NC(=N)N [(3), Bis-[7-(6′-hexyleneureodo)-carbamoyloxy-5-acetamido-4-guanidino-2,3,4,5-tetradeoxy-D-glycero-D-galacto-non-2-enopyranosonic acid]]	0.028 μg of (A)	0.017 (≈ 0.0142 µM)	>10					
CC(=O)N[C@H]1[C@H]([C@H](OC(=O)NCCCCCCNC(=O)CNC(=O)CNC(=O)CNC(=O)NCCCCCCNC(=O)NCC(=O)NCC(=O)NCC(=O)NCCCCCCNC(=O)O[C@@H]([C@@H]2OC(C(=O)O)=C[C@H](NC(=N)N)[C@H]2NC(C)=O)[C@H](O)CO)[C@H](O)CO)OC(C(=O)O)=C[C@@H]1NC(=N)N [(4)]	0.11 μg of (A)	0.084 (≈ 0.0576 µM)	>10					
CC(=O)N[C@H]1[C@H]([C@H](OC(=O)NCCCCCCNC(=O)CCCCCNC(=O)CCCCCNC(=O)NCCCCCCCCCCCCNC(=O)NCCCCCC(=O)NCCCCCC(=O)NCCCCCCNC(=O)O[C@@H]([C@@H]2OC(C(=O)O)=C[C@H](NC(=N)N)[C@H]2NC(C)=O)[C@H](O)CO)[C@H](O)CO)OC(C(=O)O)=C[C@@H]1NC(=N)N [(5)]	0.42 μg of (A)	0.35 (≈ 0.212 µM)	>10					
CC(=O)N[C@H]1[C@H]([C@H](OC(=O)NCCCCCCNC(=O)CCCCCNC(=O)CCCCCNC(=O)CCCCCNC(=O)CCCCCNC(=O)NCCCCCCNC(=O)NCCCCCC(=O)NCCCCCC(=O)NCCCCCC(=O)NCCCCCC(=O)NCCCCCCNC(=O)O[C@@H]([C@@H]2OC(C(=O)O)=C[C@H](NC(=N)N)[C@H]2NC(C)=O)[C@H](O)CO)[C@H](O)CO)OC(C(=O)O)=C[C@@H]1NC(=N)N [(6)]	0.62 μg of (A)	0.63 (≈ 0.311 µM)	>10					
CC(=O)N[C@H]1[C@H]([C@H](OC(=O)NCCCCCCN)[C@H](O)CO)OC(C(=O)O)=C[C@@H]1NC(=N)N [(7), 5-acetamido-7-(6′-aminohexyl)-carbamoyloxy-4-guanidino-2,3,4,5-tetradeoxy-D-glycero-D-galacto-non-2-enopyranosonic acid, reference compound]	0.32 μg of (A)	0.22 (≈ 0.464 µM)		>10				
CC(=O)N[C@H]1[C@H]([C@H](OC(=O)NCCCCCCNC(=O)CN(CCN(CC(=O)O)CC(=O)NCCCCCCNC(=O)O[C@@H]([C@@H]2OC(C(=O)O)=C[C@H](NC(=N)N)[C@H]2NC(C)=O)[C@H](O)CO)CC(=O)O)[C@H](O)CO)OC(C(=O)O)=C[C@@H]1NC(=N)N [Compound 8, Bis-[7-(6′-methyleneamine-N-acetic acid-N-acetamido-hexyl)-carbamoyloxy-5-acetamido-4-guanidino-2,3,4,5-tetradeoxy-D-glycero-D-galacto-non-2-enopyranosonic acid]]					>0.1	0.0671 (≈ 0.0557 µM)	0.00971 (≈ 0.00806 µM)	
CC(=O)N[C@H]1[C@H]([C@H](O)[C@H](O)CO)OC(C(=O)O)=C[C@@H]1NC(=N)N [Compound (A), 4-guanidino-2-deoxy-2,3-dehydro-N-acetylneuraminic acid, reference compound]	0.028 μg of (A)	0.0095 (≈ 0.0286 µM)	>10					0.009 (≈ 0.0271 µM)
